Measurements as given in ChEMBL document CHEMBL4020850, “Discovery of LSZ102, a Potent, Orally Bioavailable Selective Estrogen Receptor Degrader (SERD) for the Treatment of Estrogen Receptor Positive Breast Cancer” (J Med Chem, 2018).
≈ marks a conversion by molar mass, not a printed value. Calls of active or inactive are those of the source. No cut-off for these calls is given here.

Columns and labels:
Estrogen receptor [1] = biological target: T1, Estrogen receptor (Homo sapiens, UniProt P03372); assay: Induction of selective estrogen receptor alpha degradation in human MCF7 cells after 18 to 24 hrs by in-cell Western analysis; format: cell-based
T1 sequence (P03372 whole entry): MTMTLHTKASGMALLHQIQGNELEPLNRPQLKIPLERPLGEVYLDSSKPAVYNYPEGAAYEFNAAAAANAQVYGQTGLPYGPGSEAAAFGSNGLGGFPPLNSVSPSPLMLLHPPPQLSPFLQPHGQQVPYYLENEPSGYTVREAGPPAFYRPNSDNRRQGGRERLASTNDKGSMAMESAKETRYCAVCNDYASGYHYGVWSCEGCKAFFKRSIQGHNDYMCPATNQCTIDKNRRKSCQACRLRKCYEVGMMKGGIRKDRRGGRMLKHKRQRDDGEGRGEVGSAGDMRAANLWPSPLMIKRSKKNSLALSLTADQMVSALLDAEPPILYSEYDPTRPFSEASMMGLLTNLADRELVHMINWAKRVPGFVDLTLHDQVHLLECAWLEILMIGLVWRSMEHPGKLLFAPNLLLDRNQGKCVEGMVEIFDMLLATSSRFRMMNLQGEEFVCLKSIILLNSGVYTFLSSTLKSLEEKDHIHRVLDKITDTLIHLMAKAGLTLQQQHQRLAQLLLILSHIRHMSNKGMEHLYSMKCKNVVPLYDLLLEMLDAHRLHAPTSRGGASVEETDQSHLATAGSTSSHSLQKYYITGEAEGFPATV

[2] = Clearance in C57BL/6 mouse at 1 mg/kg, iv or 3 mg/kg, po; format: ADME, organism-based; settings: in vivo
[3] = Cmax in C57BL/6 mouse at 3 mg/kg, po; format: ADME, organism-based; set-up: dose 3 mg/kg, route oral; settings: in vivo
[4] = Oral bioavailability in C57BL/6 mouse at 3 mg/kg; format: ADME, organism-based; settings: in vivo
[5] = Equilibrium solubility in pH 6.8 buffer at 1 mM after 16 hrs by HPLC based shake flask method; format: physicochemical
[6] = Clearance in Sprague-Dawley rat at 1 mg/kg, iv or 3 mg/kg, po; format: ADME, organism-based; settings: in vivo
[7] = Oral bioavailability in Sprague-Dawley rat at 3 mg/kg; format: ADME, organism-based; settings: in vivo
MCF7 [8] = assay: Antiproliferative activity against human MCF7 cells after 6 days in presence of estradiol by CellTiter-Glo assay; settings: MCF7, 144 h
MCF7 [9] = assay: Antitumor activity against human MCF7 cells xenografted in NOD SCID gamma mouse assessed as change in tumor volume at 20 mg/kg, po qd for 48 days post tumor implantation measured 7 hrs post last dose; format: functional
[10] = AUC in NOD SCID gamma mouse xenografted with human MCF7 cells at 20 mg/kg, po qd for 19 days; format: ADME, organism-based; settings: in vivo
[11] = Cmax in NOD SCID gamma mouse xenografted with human MCF7 cells at 20 mg/kg, po qd for 19 days; format: ADME, organism-based; set-up: dose 20 mg/kg, route oral; settings: in vivo
Mus musculus [12] = assay: Downregulation of progesterone receptor mRNA level in NOD SCID gamma mouse xenografted with human MCF7 cells at 20 mg/kg, po qd for 48 days post tumor implantation measured 7 hrs post last dose by RT-PCR method; format: functional, organism-based
Mus musculus [13] = assay: In vivo inhibition of ER protein level in NOD SCID gamma mouse xenografted with human MCF7 cells at 20 mg/kg, po qd for 48 days post tumor implantation measured 7 hrs post last dose by Western blot method relative to control; format: functional
Rattus norvegicus [14] = assay: Dose normalized Cmax in Sprague-Dawley rat at 3 mg/kg, po; format: ADME, organism-based; settings: in vivo
Rattus norvegicus [15] = assay: Dose normalized AUC (0 to t) in Sprague-Dawley rat at 1 mg/kg, iv; format: ADME, organism-based; settings: in vivo
Rattus norvegicus [16] = assay: Dose normalized AUC (0 to t) in Sprague-Dawley rat at 3 mg/kg, po; format: ADME, organism-based; settings: in vivo
[17] = Volume of distribution at steady state in Sprague-Dawley rat at 1 mg/kg, iv or 3 mg/kg, po; format: ADME, organism-based; settings: in vivo, read-out: Vdss
[18] = Elimination half life in Sprague-Dawley rat at 1 mg/kg, iv or 3 mg/kg, po; format: ADME, organism-based; settings: in vivo, read-out: beta t1/2 (converted)
Rattus norvegicus [19] = assay: Dose normalized Cmax in Wistar Han rat at 30 mg/kg, po; format: ADME, organism-based; settings: in vivo
Rattus norvegicus [20] = assay: Dose normalized AUC (0 to t) in Wistar Han rat at 30 mg/kg, po; format: ADME, organism-based; settings: in vivo
Rattus norvegicus [21] = assay: Dose normalized Cmax in Wistar Han rat at 100 mg/kg, po; format: ADME, organism-based; settings: in vivo
Rattus norvegicus [22] = assay: Dose normalized AUC (0 to t) in Wistar Han rat at 100 mg/kg, po; format: ADME, organism-based; settings: in vivo
Rattus norvegicus [23] = assay: Dose normalized Cmax in Wistar Han rat at 300 mg/kg, po; format: ADME, organism-based; settings: in vivo
Rattus norvegicus [24] = assay: Dose normalized AUC (0 to t) in Wistar Han rat at 300 mg/kg, po; format: ADME, organism-based; settings: in vivo
Canis familiaris [25] = assay: Dose normalized Cmax in Beagle dog at 30 mg/kg, po; format: ADME, organism-based, Canis lupus familiaris; settings: in vivo
[26] = Oral bioavailability in Beagle dog at 10 mg/kg; format: ADME, organism-based, Canis lupus familiaris; settings: in vivo
[27] = Elimination half life in Beagle dog at 0.3 mg/kg, iv or 10 mg/kg, po; format: ADME, organism-based, Canis lupus familiaris; settings: in vivo, read-out: beta t1/2 (converted)
[28] = Clearance in Beagle dog at 0.3 mg/kg, iv or 10 mg/kg, po; format: ADME, organism-based, Canis lupus familiaris; settings: in vivo
Canis familiaris [29] = assay: Dose normalized AUC (0 to t) in Beagle dog at 10 mg/kg, po; format: ADME, organism-based, Canis lupus familiaris; settings: in vivo
[30] = Volume of distribution at steady state in Beagle dog at 0.3 mg/kg, iv or 10 mg/kg, po; format: ADME, organism-based, Canis lupus familiaris; settings: in vivo, read-out: Vdss
Canis familiaris [31] = assay: Dose normalized AUC (0 to t) in Beagle dog at 0.3 mg/kg, iv; format: ADME, organism-based, Canis lupus familiaris; settings: in vivo
Canis familiaris [32] = assay: Clearance in Beagle dog at 0.3 mg/kg, iv or 10 mg/kg, po relative to hepatic blood flow; format: ADME, organism-based, Canis lupus familiaris; settings: in vivo
Canis familiaris [33] = assay: Dose normalized Cmax in Beagle dog at 10 mg/kg, po; format: ADME, organism-based, Canis lupus familiaris; settings: in vivo
Canis familiaris [34] = assay: Dose normalized AUC (0 to t) in Beagle dog at 30 mg/kg, po; format: ADME, organism-based, Canis lupus familiaris; settings: in vivo
[35] = AUC in Beagle dog at 10 mg/kg, po; format: ADME, organism-based, Canis lupus familiaris; settings: in vivo
MCF7 [36] = assay: Antitumor activity against human MCF7 cells xenografted in NOD SCID gamma mouse assessed as change in tumor volume at 5 mg, sc administered once in a week for 48 days post tumor implantation measured 7 hrs post last dose; format: functional
Mus musculus [37] = assay: Downregulation of progesterone receptor mRNA level in NOD SCID gamma mouse xenografted with human MCF7 cells at 5 mg, sc administered once in a week for 48 days post tumor implantation measured 7 hrs post last dose by RT-PCR method; format: functional, organism-based
Mus musculus [38] = assay: In vivo inhibition of ER protein level in NOD SCID gamma mouse xenografted with human MCF7 cells at 5 mg, sc administered once in a week for 48 days post tumor implantation measured 7 hrs post last dose by Western blot method relative to control; format: functional
[39] = Cmax in Sprague-Dawley rat at 3 mg/kg, po; format: ADME, organism-based; set-up: dose 3 mg/kg, route oral; settings: in vivo
Estrogen receptor [40] = biological target: T1, Estrogen receptor; assay: Induction of selective estrogen receptor alpha degradation in human MCF7 cells harboring TK-ERE-Luc assessed as reduction in estradiol-induced transcriptional activity after 24 hrs by luciferase reporter gene assay; format: cell-based

COCc1ccccc1-c1sc2cc(O)ccc2c1Oc1ccc(/C=C/C(=O)O)cc1
IC50 (Estrogen receptor [1]): 3 nM

Cc1cc(-c2sc3cc(O)ccc3c2Oc2ccc(/C=C/C(=O)O)cc2)ccc1O
clearance [2]: 2.76 L/h/kg
Cmax [3]: 0.046 µM
bioavailability [4]: 2%

CC(C)c1ccccc1-c1sc2cc(O)ccc2c1Oc1ccc(/C=C/C(=O)O)cc1
clearance [2]: 0.9 L/h/kg
Cmax [3]: 1.18 µM
bioavailability [4]: 13%

Cn1cnc(/C=C/c2ccc(Oc3c(-c4ccc(O)cc4)sc4cc(O)ccc34)cc2)c1
solubility thermodynamic at 16 h, 1000 µM [5]: 9 µM (≈ 3.96 µg/mL)

Cc1cc(F)ccc1-c1sc2cc(O)ccc2c1Oc1ccc(/C=C/C(=O)O)cc1
clearance [2]: 1.98 L/h/kg
Cmax [3]: 0.925 µM
bioavailability [4]: 34%

O=C(/C=C/c1ccc(Oc2c(-c3ccc(O)cc3)sc3cc(O)ccc23)cc1)NCCC(F)(F)F
solubility thermodynamic at 16 h, 1000 µM [5]: < 5 µM

CC(F)(F)c1cc(F)ccc1-c1sc2cc(O)ccc2c1Oc1ccc(/C=C/C(=O)O)cc1 [LSZ-102]
clearance [2]: 1.68 L/h/kg
clearance [6]: 1.14 L/h/kg
bioavailability [7]: 33%
Cmax [3]: 0.492 µM
bioavailability [4]: 12%
IC50 (MCF7 [8]): 1.7 nM
T/C (MCF7 [9]): 2.4%
AUC at 456 h [10]: 3.23 µM·h
Cmax [11]: 1.07 µM
Activity (Mus musculus [12]): Active
inhibition in vivo at 20 mg/kg (Mus musculus [13]): 63%
Cmax/dose (Rattus norvegicus [14]): 0.24 µM
AUCt/dose (Rattus norvegicus [15]): 1849 nM·h
AUCt/dose (Rattus norvegicus [16]): 620 nM·h
Vd [17]: 0.9 L/kg
half-life [18]: 1.4 h
Cmax/dose (Rattus norvegicus [19]): 1.259 µM
AUCt/dose (Rattus norvegicus [20]): 2117 nM·h
Cmax/dose (Rattus norvegicus [21]): 0.513 µM
AUCt/dose (Rattus norvegicus [22]): 1940 nM·h
Cmax/dose (Rattus norvegicus [23]): 0.334 µM
AUCt/dose (Rattus norvegicus [24]): 3405 nM·h
Cmax/dose (Canis familiaris [25]): 0.123 µM
bioavailability [26]: 12%
half-life [27]: 4.1 h
clearance [28]: 0.3 L/h/kg
AUCt/dose (Canis familiaris [29]): 962 nM·h
Vd [30]: 0.3 L/kg
AUCt/dose (Canis familiaris [31]): 7713 nM·h
CL (Canis familiaris [32]): 15%
Cmax/dose (Canis familiaris [33]): 0.268 µM
AUCt/dose (Canis familiaris [34]): 624 nM·h
AUC [35]: 9.62 µM·h

CC(F)(F)c1ccccc1-c1sc2cc(O)ccc2c1Oc1ccc(/C=C/C(=O)O)cc1
clearance [2]: 0.84 L/h/kg
Cmax [3]: 0.187 µM
bioavailability [4]: 5%

C[C@]12CC[C@@H]3c4ccc(O)cc4C[C@@H](CCCCCCCCC[S+]([O-])CCCC(F)(F)C(F)(F)F)[C@H]3[C@@H]1CC[C@@H]2O (stereo not given in full) [FULVESTRANT]
T/C (MCF7 [36]): 24%
Activity (Mus musculus [37]): Active
inhibition (INH) (Mus musculus [38]): 67%

CNC(=O)/C=C/c1ccc(Oc2c(-c3ccc(O)cc3)sc3cc(O)ccc23)cc1
solubility thermodynamic at 16 h, 1000 µM [5]: < 5 µM

O=C(O)/C=C/c1ccc(Oc2c(-c3ccc(C(F)(F)F)cc3)sc3cc(O)ccc23)cc1
clearance [2]: 0.36 L/h/kg
clearance [6]: 1.8 L/h/kg
Cmax [39]: 0.985 µM
bioavailability [7]: 74%
Cmax [3]: 1.38 µM
bioavailability [4]: 28%

O=C(O)/C=C/c1ccc(Oc2c(-c3ccc(F)cc3)sc3cc(O)ccc23)cc1
clearance [2]: 1.32 L/h/kg
IC50 (Estrogen receptor [40]): 1820 nM
clearance [6]: 1.44 L/h/kg
Cmax [39]: 0.847 µM
bioavailability [7]: 33%
Cmax [3]: 0.505 µM
bioavailability [4]: 19%
